Strand notation (5' to 3'): a small letter for the sugar, then the base; units joined by * are phosphorothioate-linked, units joined directly phosphodiester-linked; [ ] holds rarer units or linkages, { } end groups; capitals alone tell only the bases. e = 2'-O-(2-methoxyethyl) (MOE); k = constrained ethyl (cEt); [5mC] = 5-methylcytosine; d = 2'-deoxy (DNA); m = 2'-O-methyl
Key:
Assay type in all cases: cell-based
[1] = tested on: Yap1 mRNA; test: Dose-dependent inhibition of human Yap1 in SNU-449 cells (Example 9, RTS36584); conditions: free uptake; for % UTC (Yap1 mRNA): approximately 48 hours; for IC50: linear regression on a log/linear plot
Protocol: Modified oligonucleotides described in the studies above were tested at various doses in SNU-449 cells. Cultured SNU-449 cells at a density of 10,000 cells per well were treated using free uptake with modified oligonucleotides diluted to concentrations described in the tables below. After approximately 48 hours, Yap1 mRNA levels were measured as previously described using the Human Yap1 primer-probe set RTS36584. Yap1 mRNA levels were normalized to total RNA content, as measured by RIBOGREEN®. Results are presented in the tables below as percent control of the amount of Yap1 mRNA relative to untreated control cells (% UTC). IC50s were calculated using a linear regression on a log/linear plot of the data in excel.

[2] = tested on: Yap1 mRNA; test: Antisense inhibition of human Yap1 in A-431 cells by cEt gapmers, single dose (Example 3, RTS36584); conditions: A-431 cells, 5,000 cells per well, approx. 48 hours
In short: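 Human epidermoid A-431 cells take up gapmer (2,000 nM, free uptake, ~48 h); Yap1 transcript is then assayed by qRT-PCR with RiboGreen normalization and reported relative to untreated cells. Gapmers carry cEt-modified wings, phosphorothioate linkages and 5-methylcytosine throughout.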

[3] = tested on: Yap1 mRNA; test: Antisense inhibition of human Yap1 in SNU-449 cells by modified oligonucleotides, single dose (Example 5, RTS36584)
In short: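 Each modified oligonucleotide is applied by free uptake to SNU-449 cultures at 2,000 nM, and total RNA is harvested around 48 h later. Yap1 transcript, quantified with the RTS36584 set and corrected for RIBOGREEN RNA content, is given as % UTC. Asterisks mark sequences overlapping the amplicon.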

[4] = Yap1 mRNA, percent of untreated control, modified oligonucleotides targeting SEQ ID NO: 1 and 2, Table 47
[5] = Table 13, free uptake, 2,000 nM modified oligonucleotide, RTS36584, normalized to RIBOGREEN, Yap1 mRNA relative to untreated control cells

| Substance | % UTC (Yap1 mRNA) ([1]; 31.3 nM) [% UTC] | % UTC (Yap1 mRNA) ([1]; 125.0 nM) [% UTC] | % UTC (Yap1 mRNA) ([1]; 500.0 nM) [% UTC] | % UTC (Yap1 mRNA) ([1]; 2000.00 nM) [% UTC] | IC50 [1] [nM] | YAP1 (% UTC) ([2]; Table 10, free uptake, 2,000 nM oligonucleotide, primer probe set RTS36584, Yap1 mRNA normalized to RIBOGREEN, percent of untreated control) | YAP1 (% UT) [3, 4] [% UT] | YAP1 (% UTC) [2, 5] [% UTC] | YAP1 (% UT) ([3]; Table 48, Yap1 mRNA level relative to untreated control, modified oligonucleotides targeting SEQ ID NO.: 1 and 2) |
| --- | --- | --- | --- | --- | --- | --- | --- | --- | --- |
| 1198546 (kG*kA*kA*dA*dT*dT*dG*dT*d[5mC]*dT*d[5mC]*dA*kT*kG*k[5mC]*e[5mC]) [compound 1198546] | 70 | 42 | 18 | 6 | 100 | – | – | – | – |
| 1198832 (kG*k[5mC]*dA*d[5mC]*dT*dT*dT*dT*dA*d[5mC]*dA*kT*eT*kA*eG*kG; antisense) [compound 1198832] | 77 | 53 | 23 | 13 | 100 | – | – | – | – |
| 1200784 (kT*kG*kT*d[5mC]*dT*mC*dA*dT*dG*d[5mC]*d[5mC]*dT*dT*kA*kT*kA; antisense) [compound 1200784] | 70 | 51 | 26 | 12 | 100 | – | – | – | – |
| 1198525 (kA*kG*dT*dG*dT*dA*dT*dG*dT*d[5mC]*dA*eG*kA*eA*kG*eA) [compound 1198525] | 62 | 26 | 8 | 1 | 40 | – | – | – | – |
| 1198616 (kT*kT*kT*dA*dA*dA*dG*dT*dG*dT*dA*dT*kG*kT*k[5mC]*eA; antisense) [compound 1198616] | 78 | 46 | 18 | 5 | 100 | – | – | – | – |
| 1197213 (kT*kG*kT*dA*dT*dG*dT*d[5mC]*dA*dG*dA*dA*dG*kA*kG*kT; antisense) [compound 1197213] | 87 | 46 | 14 | 2 | 100 | – | – | – | – |
| 1198243 (kG*kA*dT*dT*dT*dA*dG*dG*dA*dT*dG*e[5mC]*eA*eT*kG*kG; antisense) [compound 1198243] | 55 | 28 | 10 | 5 | < 30 | – | – | – | – |
| 1097247 (kT*kA*kA*dA*dG*dT*dG*dT*dA*dT*dG*dT*d[5mC]*kA*kG*kA; antisense) [compound 1097247] | 58 | 28 | 8 | 2 | 40 | – | – | – | – |
| 1198500 (kA*kT*dT*dT*dA*dG*dG*dA*dT*dG*d[5mC]*eA*kT*eG*kG*eT; antisense) [compound 1198500] | 72 | 51 | 34 | 15 | 200 | – | – | – | – |
| 1200785 (kA*kT*kT*dG*dT*mC*dT*d[5mC]*dA*dT*dG*d[5mC]*d[5mC]*kT*kT*kA; antisense) [compound 1200785] | 98 | 73 | 42 | 24 | 400 | – | – | – | – |
| 1198365 (k[5mC]*kT*kA*dA*dG*dT*dA*dA*dG*dG*dT*dT*kT*e[5mC]*k[5mC]*e[5mC]; antisense) [compound 1198365] | 59 | 38 | 15 | 5 | 100 | – | – | – | – |
| 1198895 (kG*kG*dA*dA*dA*dT*dT*dG*dT*d[5mC]*dT*k[5mC]*dA*kT*dG*k[5mC]; antisense) [compound 1198895] | 62 | 37 | 16 | 9 | 100 | – | – | – | – |
| 1198466 (kA*kG*dA*dG*dT*dA*dT*dG*dT*dG*dG*e[5mC]*kA*eA*kT*eA; antisense) [compound 1198466] | 68 | 44 | 18 | 6 | 100 | – | – | – | – |
| 1198347 (kG*kT*kA*dA*dT*dA*dT*dT*dG*d[5mC]*dA*dA*kT*e[5mC]*kT*eG) [compound 1198347] | 67 | 54 | 24 | 8 | 100 | – | – | – | – |
| 1198624 (kA*k[5mC]*kT*dA*dA*dG*dT*dA*dA*dG*dG*dT*kT*kT*k[5mC]*e[5mC]; antisense) [compound 1198624] | 62 | 37 | 21 | 9 | 100 | – | – | – | – |
| 1198409 (kA*dG*dT*dG*d[5mC]*dT*dT*dT*dG*dG*dA*kA*eG*kA*eT*k[5mC]; antisense) [compound 1198409] | 100 | 68 | 45 | 27 | 400 | – | – | – | – |
| 1009326 (kT*kA*kT*dT*dA*dG*dA*dG*dT*dA*dT*dG*dT*kG*kG*k[5mC]; antisense) [compound 1009326] | 59 | 35 | 14 | 4 | 50 | – | – | – | – |
| 1198524 (kT*kG*dT*dA*dT*dG*dT*d[5mC]*dA*dG*dA*eA*kG*eA*kG*eT; antisense) [compound 1198524] | 50 | 32 | 9 | 3 | < 30 | – | – | – | – |
| 1197214 (kA*kG*kT*dG*dT*dA*dT*dG*dT*d[5mC]*dA*dG*dA*kA*kG*kA; antisense) [compound 1197214] | 88 | 31 | 7 | 1 | 100 | – | – | – | – |
| 1198902 (kT*kT*dA*dG*dA*dG*dT*dA*dT*dG*dT*kG*dG*k[5mC]*dA*kA; antisense) [compound 1198902] | 74 | 46 | 22 | 10 | 100 | – | – | – | – |
| 1198960 (kA*kA*dG*dT*dG*dT*dA*dT*dG*dT*d[5mC]*kA*dG*kA*dA*kG; antisense) [compound 1198960] | 77 | 35 | 8 | 2 | 100 | – | – | – | – |
| 958497 (kA*kT*kA*dT*dG*dG*dA*dA*dA*dT*dT*dG*dT*k[5mC]*kT*k[5mC]) [Compound 958497] | – | – | – | – | – | 1 | 20 | – | – |
| 958500 (kT*k[5mC]*kT*dA*dT*dA*dT*dT*dA*dG*dA*dG*dT*kA*kT*kG) [Compound 958500] | – | – | – | – | – | – | 53 | 5 | – |
| 958590 (kA*kG*kG*dT*dA*dT*dA*dA*d[5mC]*dT*dG*dG*dG*k[5mC]*kA*kA) [Compound 958590] | – | – | – | – | – | – | – | 2 | 18 |
